From patent US20260184712A1, “Heterocyclic Compounds as ENT Inhibitors and Compounds for Use in the Treatment of Cancers” (iTeos Belgium SA, priority 2022, published 2026)

target: T1, human ENT1 (Homo sapiens, UniProt Q99808); experiment: ENT1 binding assay (competition with Sahenta-DY647 on JAR cells); details: competition with SAHENTA-DY647 binding; IC50 categorized; read-out: Binding Assay IC50
T1 construct: JAR cells expressing ENT1 were purchased from ATCC; host or cells: JAR cells
T1 sequence (Q99808 1-456): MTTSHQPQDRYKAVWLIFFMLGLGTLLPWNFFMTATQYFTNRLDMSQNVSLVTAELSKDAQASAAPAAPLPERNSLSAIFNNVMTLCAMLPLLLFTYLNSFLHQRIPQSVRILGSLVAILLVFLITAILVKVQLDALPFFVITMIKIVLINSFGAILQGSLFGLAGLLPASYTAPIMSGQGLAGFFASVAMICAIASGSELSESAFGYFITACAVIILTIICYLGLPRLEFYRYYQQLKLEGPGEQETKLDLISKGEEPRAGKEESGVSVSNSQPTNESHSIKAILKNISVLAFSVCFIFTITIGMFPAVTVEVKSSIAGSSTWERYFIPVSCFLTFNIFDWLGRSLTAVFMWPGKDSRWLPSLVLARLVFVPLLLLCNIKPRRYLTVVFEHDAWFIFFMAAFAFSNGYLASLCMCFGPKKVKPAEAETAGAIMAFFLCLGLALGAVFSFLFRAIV
Protocol: Compounds of the present disclosure were assayed to show ability to bind to human ENT1. The assay is a competition between a compound of interest and Sahenta-DY647, an ENT1 inhibitor that emits fluorescence (Ex=630 nm, Em=670 nm). By measuring the fluorescence at the end of the assay, one can assess the binding potency of the compounds tested. The compounds of the present disclosure were tested and compared to known ENT inhibitors, dilazep and NBMPR:
JAR cells expressing ENT1 were purchased from ATCC® (HTB-144TM). Cells were cultured in RPMI 1640 medium (LONZA®, #BE12-702F/U1) supplemented with 10% FBS (GIBCO®, #10270-106), 10 mM Hepes (LONZA®, #BE17-737E), 1 mM Sodium Pyruvate (LONZA®, #BE13-115E), and 2% Penicillin/Streptomycin (LONZA®, #DE17-603E) at 37° C. and 5% CO2.
The assay was conducted with the following buffer on the day of the assay: HBSS (LONZA®, #LO-527F) supplemented with 10 mM Hepes (LONZA®, #BE17-737E) and 0.1% BSA (Miltenyi®, #130-091-376).
JAR cells were resuspended in the described buffer. The compounds of interest and Sahenta-DY647 were diluted 200× with the described buffer.
A total of 50,000 cells were pre-incubated for 30 min at 4° C. with the compounds of the present disclosure before adding the corresponding amount of Sahenta-DY647 (100 nM) to the minimal concentration at Bmax and incubating for an additional 30 min at 4° C. The total volume of the reaction was 100 μL (50 μL of cells, 25 μL of the compounds of the present disclosure, and 25 μL of Sahenta-DY647) in a U-bottom 96 well plate (Greiner®, #650-180). The plates were washed 2× by centrifugation (4 min, 400 rcf at 4° C.) in the same buffer. Cells were re-suspended in 70 μL of the buffer and 50 μL was transferred to a Black 384 Optiplate (PerkinElmer®, #6007279). Fluorescence (Ex=630 nm, Em=670 nm) was acquired on a Spectramax i3x (Molecular Devices®).
Dose-response data from the compounds were analyzed with Graphpad Prism 9.1.1@software, using nonlinear regression applied to a sigmoidal dose-response model and the following equation:
Y=Bottom+(Top-Bottom)/(1+10^((LogIC50−X)*HillSlope)), with a shared bottom and top between the test reagent and dipyridamole.
Data from multiple experiments were compiled by taking the average pIC50 value for the reagent in question±the standard deviation (s.d.) and expressing it as an average IC50 value in nM.
The inhibitory effect of the test compound was expressed as a percentage of the inhibition of SAHENTA-DY647 binding.

`C[C@H]1O[C@@H](n2c(NC3CCCC3)nc3c(OCc4ccc(Cl)cc4)ncnc32)[C@H](O)[C@@H]1O` [Compound 91] and `C[C@H]1O[C@@H](n2c(NC3CCCC3)nc3c(OCc4ccc(C(F)F)cc4)ncnc32)[C@H](O)[C@@H]1O` [Compound 94] fall in the same range of IC50: 1 to 20 nM for the first, 1 to 20 nM for the second.

`C[C@H]1O[C@@H](n2c(NC3CCCC3)nc3c(OCc4ccc(C(F)(F)F)cc4)ncnc32)[C@H](O)[C@@H]1O` [Compound 92] and `C[C@H]1O[C@@H](n2c(N[C@H]3CC[C@](C)(O)CC3)nc3c(OCc4ccc(C(F)(F)F)cc4)ncnc32)[C@H](O)[C@@H]1O` [Compound 125] fall in the same range of IC50: 1 to 20 nM for the first, 1 to 20 nM for the second.

Compared with `C[C@H]1O[C@@H](n2c(NC3CCCC3)nc3c(OCc4ccc(C(F)(F)F)nc4)ncnc32)[C@H](O)[C@@H]1O` [Compound 93], `C[C@H]1O[C@@H](n2c(NC3CCCC3)nc3c(OCc4ccc(C(F)F)nc4)ncnc32)[C@H](O)[C@@H]1O` [Compound 95] is lower in IC50: 20 to 500 nM for the first, 1 to 20 nM for the second. The second is the more potent here.

`CC(CCO)Nc1nc2c(OCc3ccc(C(F)(F)F)cc3)ncnc2n1[C@@H]1O[C@H](C)[C@@H](O)[C@H]1O` (stereo partly drawn) [Compound 96] and `CC(CCO)Nc1nc2c(OCc3ccc(OC(F)(F)F)cc3)ncnc2n1[C@@H]1O[C@H](C)[C@@H](O)[C@H]1O` (stereo partly drawn) [Compound 99] fall in the same range of IC50: 1 to 20 nM for the first, 1 to 20 nM for the second.

`CC(CCO)Nc1nc2c(OCc3ccc(Cl)cc3)ncnc2n1[C@@H]1O[C@H](C)[C@@H](O)[C@H]1O` (stereo partly drawn) [Compound 97] and `CC(CCO)Nc1nc2c(OCc3ccc(F)cc3)ncnc2n1[C@@H]1O[C@H](C)[C@@H](O)[C@H]1O` (stereo partly drawn) [Compound 98] fall in the same range of IC50: 1 to 20 nM for the first, 1 to 20 nM for the second.

First: C[C@H]1O[C@@H](n2c(NC3CCC(O)C3)nc3c(OCc4ccc(Cl)cc4)ncnc32)[C@H](O)[C@@H]1O (stereo partly drawn) [Compound 101]
Second: C[C@H]1O[C@@H](n2c(NC3CCC(O)C3)nc3c(OCc4ccc(F)cc4)ncnc32)[C@H](O)[C@@H]1O (stereo partly drawn) [Compound 102]
The IC50 of the first is higher: 20 to 500 nM for the first, 1 to 20 nM for the second.

`C[C@H]1O[C@@H](n2c(NCC3CC(F)(F)C3)nc3c(OCc4ccc(C#N)cc4)ncnc32)[C@H](O)[C@@H]1O` [Compound 104] and `C[C@H]1O[C@@H](n2c(NCC3CCC(F)(F)C3)nc3c(OCc4ccc(C#N)cc4)ncnc32)[C@H](O)[C@@H]1O` (stereo partly drawn) [Compound 105] fall in the same range of IC50: 1 to 20 nM for the first, 1 to 20 nM for the second.

`C[C@H]1O[C@@H](n2c(NCC3CCC(F)(F)CC3)nc3c(OCc4ccc(C#N)cc4)ncnc32)[C@H](O)[C@@H]1O` [Compound 106] and `C[C@H]1O[C@@H](n2c(NCC3CCOCC3)nc3c(OCc4ccc(C#N)cc4)ncnc32)[C@H](O)[C@@H]1O` [Compound 109] fall in the same range of IC50: 1 to 20 nM for the first, 1 to 20 nM for the second.

`C[C@H]1O[C@@H](n2c(NCC3COC3)nc3c(OCc4ccc(C#N)cc4)ncnc32)[C@H](O)[C@@H]1O` [Compound 107] and `C[C@H]1O[C@@H](n2c(NCC3CCOC3)nc3c(OCc4ccc(Cl)cc4)ncnc32)[C@H](O)[C@@H]1O` (stereo partly drawn) [Compound 110] fall in the same range of IC50: 20 to 500 nM for the first, 20 to 500 nM for the second.

`C[C@H]1O[C@@H](n2c(NCC3CCOCC3)nc3c(OCc4ccc(Cl)cc4)ncnc32)[C@H](O)[C@@H]1O` [Compound 111] and `C[C@H]1O[C@@H](n2c(N[C@H]3CC[C@](C)(O)CC3)nc3c(OCc4ccc(Cl)cc4)ncnc32)[C@H](O)[C@@H]1O` [Compound 127] fall in the same range of IC50: 20 to 500 nM for the first, 20 to 500 nM for the second.

First: C[C@H]1O[C@@H](n2c(N[C@H]3C[C@@](C)(O)C3)nc3c(OCc4ccc(C#N)cc4)ncnc32)[C@H](O)[C@@H]1O [Compound 119]
Second: C[C@H]1O[C@@H](n2c(N[C@H]3C[C@](C)(O)C3)nc3c(OCc4ccc(C#N)cc4)ncnc32)[C@H](O)[C@@H]1O [Compound 120]
The IC50 of the first is higher: 20 to 500 nM for the first, under 1 nM for the second.

`C[C@H]1O[C@@H](n2c(N[C@H]3CC[C@@](C)(O)CC3)nc3c(OCc4ccc(OC(F)F)cc4)ncnc32)[C@H](O)[C@@H]1O` [Compound 122] and `C[C@H]1O[C@@H](n2c(N[C@H]3C[C@@](C)(O)C3)nc3c(OCc4ccc(OC(F)F)cc4)ncnc32)[C@H](O)[C@@H]1O` [Compound 123] fall in the same range of IC50: 1 to 20 nM for the first, 1 to 20 nM for the second.

First: C[C@H]1O[C@@H](n2c(N[C@H]3C[C@](C)(O)C3)nc3c(OCc4ccc(OC(F)F)cc4)ncnc32)[C@H](O)[C@@H]1O [Compound 124]
Second: C[C@H]1O[C@@H](n2c(N[C@H]3CC[C@](C)(O)CC3)nc3c(OCc4ccc(F)cc4)ncnc32)[C@H](O)[C@@H]1O [Compound 129]
The IC50 of the first is lower: under 1 nM for the first, 1 to 20 nM for the second. The first is the more potent here.

`C[C@H]1O[C@@H](n2c(N[C@H]3CC[C@@](C)(O)CC3)nc3c(OCc4ccc(C(F)(F)F)cc4)ncnc32)[C@H](O)[C@@H]1O` [Compound 126] and `C[C@H]1O[C@@H](n2c(N[C@H]3CC[C@@](C)(O)CC3)nc3c(OCc4ccc(F)cc4)ncnc32)[C@H](O)[C@@H]1O` [Compound 130] fall in the same range of IC50: 1 to 20 nM for the first, 1 to 20 nM for the second.

`C[C@H]1O[C@@H](n2c(N[C@H]3CC[C@@](C)(O)CC3)nc3c(OCc4ccc(Cl)cc4)ncnc32)[C@H](O)[C@@H]1O` [Compound 128] and `C[C@H]1O[C@@H](n2c(N[C@H]3CC[C@@](C)(O)CC3)nc3c(OCc4ccc(C#N)cc4)ncnc32)[C@H](O)[C@@H]1O` [Compound 131] fall in the same range of IC50: 1 to 20 nM for the first, 1 to 20 nM for the second.

First: C[C@H]1O[C@@H](n2c(N[C@H]3CC[C@](C)(O)CC3)nc3c(OCc4ccc(C#N)cc4)ncnc32)[C@H](O)[C@@H]1O [Compound 132]
Second: O=[N+]([O-])c1ccc(COc2ncnc3c2nc(NC2CCCC2)n3[C@@H]2O[C@H](COCCO)[C@@H](O)[C@H]2O)cc1 [Compound 135]
The IC50 of the first is lower: 1 to 20 nM for the first, 20 to 500 nM for the second. The first is the more potent here.

Compared with `C[C@H]1O[C@@H](n2c(NC3CCS(=O)(=O)CC3)nc3c(N4CCc5ccc([N+](=O)[O-])cc5C4)ncnc32)[C@H](O)[C@@H]1O` [Compound 136], `C[C@H]1O[C@@H](n2c(NC3CCOCC3)nc3c(N4CCc5ccc([N+](=O)[O-])cc5C4)ncnc32)[C@H](O)[C@@H]1O` [Compound 148] is higher in IC50: under 1 nM for the first, 1 to 20 nM for the second.

`C[C@H]1O[C@@H](n2c(NCc3cnn(C)c3)nc3c(N4CCc5ccc([N+](=O)[O-])cc5C4)ncnc32)[C@H](O)[C@@H]1O` [Compound 138] and `C[C@H]1O[C@@H](n2c(Nc3cnn(C)c3)nc3c(N4CCc5ccc([N+](=O)[O-])cc5C4)ncnc32)[C@H](O)[C@@H]1O` [Compound 142] cannot be ordered by IC50: under 1 nM for the first, under 1 nM for the second.

First: C[C@H]1O[C@@H](n2c(N[C@H]3CC[C@@](C)(O)CC3)nc3c(N4CCc5ccc([N+](=O)[O-])cc5C4)ncnc32)[C@H](O)[C@@H]1O [Compound 139]
Second: C[C@H]1O[C@@H](n2c(N[C@H]3CC[C@](C)(O)CC3)nc3c(N4CCc5ccc([N+](=O)[O-])cc5C4)ncnc32)[C@H](O)[C@@H]1O [Compound 144]
The IC50 of the first is lower: under 1 nM for the first, 1 to 20 nM for the second.

First: C[C@H]1O[C@@H](n2c(NC3CCC(O)CC3)nc3c(N4CCc5ccc([N+](=O)[O-])cc5C4)ncnc32)[C@H](O)[C@@H]1O (stereo partly drawn) [Compound 140]
Second: CC(C)Nc1nc2c(N3CCc4ccc([N+](=O)[O-])cc4C3)ncnc2n1[C@@H]1O[C@H](C)[C@@H](O)[C@H]1O [Compound 149]
The IC50 of the first is lower: under 1 nM for the first, 1 to 20 nM for the second.

First: C[C@H]1O[C@@H](n2c(NCCCS(C)(=O)=O)nc3c(N4CCc5ccc([N+](=O)[O-])cc5C4)ncnc32)[C@H](O)[C@@H]1O [Compound 143]
Second: COCCCNc1nc2c(N3CCc4ccc([N+](=O)[O-])cc4C3)ncnc2n1[C@@H]1O[C@H](C)[C@@H](O)[C@H]1O [Compound 146]
The IC50 of the first is lower: under 1 nM for the first, 1 to 20 nM for the second. The first is the more potent here.

`C[C@H]1O[C@@H](n2c(NCCCO)nc3c(N4CCc5ccc(C#N)cc5C4)ncnc32)[C@H](O)[C@@H]1O` [Compound 155] and `COCCCNc1nc2c(N3CCc4ccc(C#N)cc4C3)ncnc2n1[C@@H]1O[C@H](C)[C@@H](O)[C@H]1O` [Compound 160] fall in the same range of IC50: 1 to 20 nM for the first, 1 to 20 nM for the second.

For `C[C@H]1O[C@@H](n2cc(C(F)(F)F)c3c(SCc4ccc([N+](=O)[O-])cc4)ncnc32)[C@H](O)[C@@H]1O` [Compound 163], the IC50 was 20 to 500 nM.
